# Assay results reported in patent publication US4021421A, “Benzodiazepine derivatives” (Richter Gedeon Vegyeszeti Gyar Rt., priority 1974, dated 1977).
# Legend:
# hexobarbital oxidase = assay: in vivo hexobarbital oxidase activity: hexobarbital sleeping time in rats (enzyme induction); parameters: species or system male Wistar rats; conditions: 40 mg./kg. oral; for Difference % (period of sleep vs. control): 24 hours, vs. control group, difference greater than 25% regarded as biologically significant; for Period of sleep, min. ± standard error: hexobarbital sodium 40 mg./kg. i.v. 24 hours later, control 28.50 ± 3.12 min.
# Description: The enzyme-inducing effects of the new compounds were examined under in vivo conditions by determining the hexobarbital oxidase activity. The active agents of the formula (I) were administered to male Wistar rats weighing 50 to 60 g. in oral dosages of 40 mg./kg. The effect appears 24 hours after the administration of the enzyme-inducing substance. At that time the inactivation rate of hexobarbital was determined by administering intravenously 40 mg./kg. of hexobarbital sodium into the animals and measuring the time elapsed between the administration and the reappearance of the righting reflex. The period of sleep observed for the animals treated with the new compounds was compared to that observed in the control group (the animals belonging to the control group were treated with carrier substance only).
# 24 Hours after the administration of the enzyme-inducing compounds the in vivo inactivation of hexobarbital accelerates, which is evidenced by the shortening of the period of sleep. The results were expressed as percentage differences with respect to the controls. On the basis of the preliminary experiments a difference greater than 25% was regarded to be biologically significant.
# hexobarbital = assay: biological half life-time of hexobarbital (UV spectrophotometry of plasma); conditions: half-life of hexobarbital in treated rats, control 38 min.
Compound,Difference % (period of sleep vs. control) (hexobarbital oxidase) [%],"Period of sleep, min. ± standard error (hexobarbital oxidase) [min]",T1/2 (biological half life-time of hexobarbital) (hexobarbital) [min.]
"O=NN1CC(=O)Nc2ccc([N+](=O)[O-])cc2C1c1ccccc1 (stereo not drawn) [Example 2, 4-Nitroso-5-phenyl-7-nitro-1,3,4,5-tetrahydro-2H-1,4-benzodiazepine-2-one]",-51,13.97 ± 2.10,
"CN1C(=O)CN(N=Cc2ccc(O)cc2)C(c2ccccc2)c2cc(Cl)ccc21 (stereo not drawn) [Example 10, 1-Methyl-4-(p-hydroxy-benzalamino)-5-phenyl-7-chloro-1,3,4,5-tetrahydro-2H-1,4-benzodiazepine-2-one]",-41,16.82 ± 1.84,
"CC(=O)NN1CC(=O)N(C)c2ccc(Cl)cc2C1c1ccccc1 (stereo not drawn) [Example 13, 1-Methyl-4-acetylamino-5-phenyl-7-chloro-1,3,4,5-tetrahydro-2H-1,4-benzodiazepine-2-one]",-29,20.24 ± 2.17,
"CN1C(=O)CN(NC(=O)CCl)C(c2ccccc2)c2cc(Cl)ccc21 (stereo not drawn) [Example 12, 1-Methyl-4-chloroacetamino-5-phenyl-7-chloro-1,3,4,5-tetrahydro-2H-1,4-benzodiazepine-2-one]",-33,19.10 ± 2.28,
"CN1C(=O)CN(N=O)C(c2ccccc2)c2cc(Cl)ccc21 (stereo not drawn) [Example 1, 1-Methyl-4-nitroso-5-phenyl-7-chloro-1,3,4,5-tetrahydro-2H-1,4-benzodiazepine-2-one]",-42,16.53 ± 1.93,
"CN1C(=O)CN(N=Cc2ccccc2)C(c2ccccc2)c2cc(Cl)ccc21 (stereo not drawn) [Example 5, 1-Methyl-4-benzalamino-5-phenyl-7-chloro-1,3,4,5-tetrahydro-2H-1,4-benzodiazepine-2-one]",-58,11.96 ± 1.38,26
"CN1C(=O)CN(N)C(c2ccccc2)c2cc(Cl)ccc21 (stereo not drawn) [Example 3, 1-Methyl-4-amino-5-phenyl-7-chloro-1,3,4,5-tetrahydro-2H-1,4-benzodiazepine-2-one]",-35,18.57 ± 2.06,
